These results are taken from article PMC5367033, “Inhibitors of BRD4 Protein from a Marine-Derived Fungus Alternaria sp. NH-F6” (Marine Drugs, 2017).

SMILES strings stand for the structures.

For this test, the target named is T1, BRD4 (Homo sapiens, UniProt O60885).
T1 construct: His-tagged BRD4-BD1 (bromodomain 1)
As to the kind of experiment: TR-FRET (HTRF) displacement of biotin-labeled peptide ligand from BRD4-BD1; single dose, […]. Format: biochemical. The conditions noted are these: read-out: Inhibition Rate / 10 μM. In general terms: Time-resolved FRET reads energy transfer from a long-lived donor to a nearby acceptor.

For the compound `O=C1CC[C@]2(O)c3c(ccc(O)c31)-c1ccc(O)c3c1C2[C@@H](O)[C@@H](Cl)[C@H]3O` (stereo partly drawn) [compound 1, 12β-Chloro-3,9α,11β,13β,16-pentahydroxy-8,9,10,11,12,13-hexahydro-6(7H)-one], the inhibition at 10 µM turned out to be 57.7%.

For the compound `O=C1C=Cc2c3c4c(c(O)ccc4c4ccc(O)c1c24)[C@H](O)[C@H](O)[C@H]3O` [compound 2, 3,11α,12β,13β,16-Pentahydroxy-11,12-dihydroperylen-6(13H)-one], the inhibition at 10 µM amounted to 88.1%.
